Assay results from US9067968B2, “Tight junction protein modulators and uses thereof” (The Regents of the University of Colorado, a body corporate, priority 2007, dated 2015).
Bridges are numbered along the chain shown (N, C = ends). Where no end group is shown, it is not given here.

Key:
occludin = test: Occludin distribution by immunofluorescence after peptide treatment; assay type: cell-based, mouse; conditions: mature EPH4 monolayers, 8 hours at 350 μM
Method: To establish the effect of LYHY (SEQ ID NO:1) and DFYNP (SEQ ID NO:2) peptide treatment upon the distribution of endogenous occludin, EPH4 cells were treated with the peptides for 8 hours. The effect of peptides on occludin distribution in mature EPH4 cell monolayers is shown on FIG. 3B, where cell cultures grown on glass slides were treated with LYHY (SEQ ID NO:1), DFYNP (SEQ ID NO:2) or control LYQY (SEQ ID NO:3) peptide for 8 hours at 350 μM. Cells were then stained for occludin. […] Occludin was not as brightly stained at the tight junction in these cells and appeared in intracellular regions outside the tight junction.

EPH4 cells [1] = test: Calcium switch: recovery of transepithelial resistance; assay type: cell-based, mouse; conditions: peptide 350 μM, removed after 24 hours
Method: To confirm that the LYHY (SEQ ID NO:1) and DFYNP (SEQ ID NO:2) peptides disrupted tight junction properties, a “calcium switch” experiment was performed. The removal of extracellular Ca^+2 and Mg^+2 abolished TER and disrupts intercellular junctions when applied to various epithelia, causing an intracellular redistribution of various cell adhesion proteins, including occludin, away from the apical junction complex. Several epithelial cell lines reorganized the apical junction complex and recovered TER following the replenishment of normal Ca^+2 and Mg^+2 containing medium. The calcium switch was performed on filter-grown EPH4 cells that had achieved a TER of 1000 Ohms·cm^2. After 15 minutes in Ca^+2 and Mg^+2 depleted-medium, TER was reduced to baseline resistance. Cells were then switched back to normal medium containing the occludin peptide, the claudin peptide or the control peptide at a concentration of 350 μM. The control peptide (LYQY (SEQ ID NO:3)) had one amino acid substitution of the occludin peptide and was also circularized with cysteines at each terminus. Peptides were removed after 24 hours. […] TER was measured at 12 and 24 hours following peptide application. Peptides were washed away 24 hours following application and TER was measured every 24 hours thereafter. […]

EPH4 cells [2] = test: TER of intact high resistance monolayers during peptide treatment; assay type: cell-based, mouse; conditions: 350 μM, 3 days of peptide treatment, replenished daily
Method: (§1) FIGS. 4A and 4B show the effects of the LYHY (SEQ ID NO:1) peptide on TUNEL reactivity and TER. In particular, FIG. 4A is a graph showing the number of TUNEL stained EPH4 and MDCK cells that were grown on glass slides and treated with LYHY (SEQ ID NO:1) or control peptide for 6 or 12 hours. FIG. 4B is a graph of TER that was recorded at 0, 24, […], and 72 hours post peptide treatment of EPH4 cells that were grown on filters until the TER reached 1000 (Ohms·cm^2), then treated with solvent, LYHY (SEQ ID NO:1), or control peptides. Peptides were diluted to 350 μM in normal growth medium and placed in the top and bottom chambers. TER was recorded at 0, 24, 48, and 72 hours post peptide treatment. Peptides were replenished daily, after recordings.
Similarly, treatment of EPH4 cells with a larger occludin mimic peptide caused a change in occludin distribution while treated cells maintained the majority of control TER.

EPH4 cells [3] = test: TUNEL staining of peptide-treated EPH4 cells; assay type: cell-based, mouse; conditions: for rate of apoptosis: peptide treatment of mature monolayers
Method: (§2) TUNEL staining was performed using the Roche In Situ Cell Death Detection Kit, TMR red. Cells were fixed in 2% paraformaldehyde and permeabilized in 1% sodium citrate (trisodium salt) containing 0.1% TX-100. Staining was performed as per manufacturers instructions.
(§3) Having established that LYHY (SEQ ID NO:1) and DFYNP (SEQ ID NO:3) peptides impeded recovery of TER following the calcium switch and changed the normal distribution of occludin, the effects of disruption of occludin function on apoptosis was examined. EPH4 mouse mammary epithelial cells and MDCK canine kidney epithelial cells were treated with LYHY (SEQ ID NO:1) peptide for various times and then TUNEL stained.
as §1

[4] = tested on: activated caspase-8 and activated caspase-3; test: Activated caspase stains in live peptide-treated cells; assay type: cell-based, mouse; conditions: EPH4 cells, 2 h post peptide treatment, 350 μM
Method: Cells were stained with Image-iT®LIVE Green Caspase-8 Detection Kit, Molecular Probes and/or Image-iT®LIVE Red Caspase-3 and -7 Detection Kit, Molecular Probes. Stains were both diluted into differentiation media that contained LYHY (SEQ ID NO:1) or LYQY (SEQ ID NO:3). Cells were stained in the incubator 1 hour, rinsed in […] differentiation media, and processed for immunofluorescence.
Possible mechanism linking occludin disruption to a known means of initiation of apoptosis was then explored using the LYHY (SEQ ID NO:1) peptide. It is believed that the loss of cellular adhesion results in the activation of the death receptor pathway and specify caspase-8 as the initiator caspase in apoptosis occurring due to loss of either cadherin or integrin function. To observe potential activation of the caspase-8 cascade, live EPH4 cells that had been treated with LYHY (SEQ ID NO:1) or control peptide were stained with cell permeable, fluorescent probes that irreversibly bind the proteolytic sites of activated caspase-8 (carboxyfluoresceine-LETD-fmk) and activated caspase-3 (sulphorhodamine-DEVD-fmk). […] Areas showing caspase-3 activation overlapped with areas showing caspase-8 activation, while caspase-8 activation was more widespread and sometimes occurred alone. […]

MDCK cells = test: TUNEL staining of peptide-treated MDCK cells; assay type: cell-based, canine; conditions: 6 or 12 hours
Method: as §2, §3
as §1, with “Peptides were replenished daily, after recordings.” left out

Substance | distribution of endogenous occludin (occludin) | TER reached after the calcium switch (EPH4 cells [1]; after about 6 days / several days following peptide removal) [Ohms·cm^2] | time to recover initial TER following the calcium switch (EPH4 cells [1]; initial TER 1000 Ohms·cm^2) [h] | effect on TER of intact monolayers (EPH4 cells [2]) | rate of apoptosis (EPH4 cells [3]) | staining for activated caspases (caspase-8, caspase-3) [4] | TUNEL staining (EPH4 cells [3]; EPH4 cells, 6 or 12 hours) | TUNEL staining (MDCK cells)
Cyclic H-CLYQYC-OH (flanking Cys, cyclised; Control Peptide Fig. 3A) [control peptide with one amino acid substitution of the occludin peptide, circularized with cysteines at each terminus] | Only an occasional cell showing non-tight junctional distribution of occludin | 4000 | ≤ 48 | – | – | – | – | –
H-CDFYNPC (disulfide 1-7; not fully specified) [peptide derived from the second extracellular loop of several claudins, cyclized via flanking cysteines] | islands of cells with irregular occludin distribution | – | – | did not significantly reduce TER | increase the rate of apoptosis | – | – | –
cyclic H-CLYHYC-OH (flanking Cys, cyclised; TJ Protein Modulator 1) [Occludin second extracellular loop peptide, cyclized via flanking cysteines] | islands of cells with irregular occludin distribution | – | – | did not significantly reduce TER | increase the rate of apoptosis | increased staining for activated caspases relative to controls | increased TUNEL staining | increased TUNEL staining
